{
  "source": "patent US11780821B2",
  "about": "“Inhibitors of fibroblast activation protein” (Praxis Biotech LLC, priority 2017, dated 2023)",
  "type_in_all_cases": "biochemical",
  "key": {"[1]": {"molecular_target": "T1, recombinant human FAPα (rhFAPα) (Homo sapiens, UniProt Q12884)", "T1 construct": "purchased R&S system (so in the source)", "T1 sequence (Q12884 1-760)": "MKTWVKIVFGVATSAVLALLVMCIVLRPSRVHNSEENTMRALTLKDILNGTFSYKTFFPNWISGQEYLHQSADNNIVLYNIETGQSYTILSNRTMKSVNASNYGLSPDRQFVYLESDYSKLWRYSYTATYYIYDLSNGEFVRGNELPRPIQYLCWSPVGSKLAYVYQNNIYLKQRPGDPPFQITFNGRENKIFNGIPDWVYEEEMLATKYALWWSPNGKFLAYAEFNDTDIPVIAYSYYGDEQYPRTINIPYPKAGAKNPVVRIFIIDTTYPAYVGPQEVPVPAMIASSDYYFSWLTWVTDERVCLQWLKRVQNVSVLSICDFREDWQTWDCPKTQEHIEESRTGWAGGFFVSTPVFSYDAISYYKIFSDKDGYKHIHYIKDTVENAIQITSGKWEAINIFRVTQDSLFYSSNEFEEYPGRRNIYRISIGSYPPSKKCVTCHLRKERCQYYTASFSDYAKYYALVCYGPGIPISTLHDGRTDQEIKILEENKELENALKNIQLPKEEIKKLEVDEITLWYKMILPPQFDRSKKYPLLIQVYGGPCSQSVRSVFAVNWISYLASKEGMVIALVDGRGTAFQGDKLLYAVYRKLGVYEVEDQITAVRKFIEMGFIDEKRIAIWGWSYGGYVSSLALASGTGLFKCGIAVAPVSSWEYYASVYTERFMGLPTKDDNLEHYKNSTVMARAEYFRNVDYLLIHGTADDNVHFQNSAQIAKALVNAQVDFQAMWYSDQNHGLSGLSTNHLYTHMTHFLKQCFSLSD", "test": "FAPα enzymatic exopeptidase (dipeptidase) activity assay", "conditions": "for inhibition at 1 µM: read-out: rhFAPα (% exo inh @ 1 μM); for IC50: exopeptidase, read-out: rhFAPα (exo IC50)"}, "[2]": {"molecular_target": "T2, recombinant human DPPIV (rhDPPIV) (Homo sapiens, UniProt P27487)", "T2 construct": "purchased R&S system (so in the source)", "T2 sequence (P27487 whole entry)": "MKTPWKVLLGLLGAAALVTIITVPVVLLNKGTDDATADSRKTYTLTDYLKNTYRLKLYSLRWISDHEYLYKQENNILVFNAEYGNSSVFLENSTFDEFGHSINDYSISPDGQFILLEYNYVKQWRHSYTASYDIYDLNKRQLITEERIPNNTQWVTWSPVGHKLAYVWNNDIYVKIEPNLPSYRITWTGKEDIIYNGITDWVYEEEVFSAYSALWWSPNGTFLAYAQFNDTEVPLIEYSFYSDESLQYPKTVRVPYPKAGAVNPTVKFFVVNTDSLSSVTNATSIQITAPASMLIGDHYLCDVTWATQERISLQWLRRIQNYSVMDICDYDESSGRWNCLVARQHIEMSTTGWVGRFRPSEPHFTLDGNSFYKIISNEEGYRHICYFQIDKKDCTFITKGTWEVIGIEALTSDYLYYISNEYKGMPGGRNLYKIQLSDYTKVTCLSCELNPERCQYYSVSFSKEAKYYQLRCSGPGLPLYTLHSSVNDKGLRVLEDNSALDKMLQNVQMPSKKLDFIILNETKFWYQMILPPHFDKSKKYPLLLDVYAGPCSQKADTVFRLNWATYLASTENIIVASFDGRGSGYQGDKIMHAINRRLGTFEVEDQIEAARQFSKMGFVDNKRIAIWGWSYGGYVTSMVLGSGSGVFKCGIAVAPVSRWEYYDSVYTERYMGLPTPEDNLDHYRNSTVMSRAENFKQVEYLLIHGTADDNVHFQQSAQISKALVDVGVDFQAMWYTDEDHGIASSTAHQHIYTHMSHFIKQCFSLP", "test": "DPPIV enzymatic activity assay", "conditions": "H-Gly-Pro-pNA substrate"}, "[3]": {"molecular_target": "T3, recombinant human PREP (rhPREP) (Homo sapiens, UniProt P48147)", "T3 sequence (P48147 1-710)": "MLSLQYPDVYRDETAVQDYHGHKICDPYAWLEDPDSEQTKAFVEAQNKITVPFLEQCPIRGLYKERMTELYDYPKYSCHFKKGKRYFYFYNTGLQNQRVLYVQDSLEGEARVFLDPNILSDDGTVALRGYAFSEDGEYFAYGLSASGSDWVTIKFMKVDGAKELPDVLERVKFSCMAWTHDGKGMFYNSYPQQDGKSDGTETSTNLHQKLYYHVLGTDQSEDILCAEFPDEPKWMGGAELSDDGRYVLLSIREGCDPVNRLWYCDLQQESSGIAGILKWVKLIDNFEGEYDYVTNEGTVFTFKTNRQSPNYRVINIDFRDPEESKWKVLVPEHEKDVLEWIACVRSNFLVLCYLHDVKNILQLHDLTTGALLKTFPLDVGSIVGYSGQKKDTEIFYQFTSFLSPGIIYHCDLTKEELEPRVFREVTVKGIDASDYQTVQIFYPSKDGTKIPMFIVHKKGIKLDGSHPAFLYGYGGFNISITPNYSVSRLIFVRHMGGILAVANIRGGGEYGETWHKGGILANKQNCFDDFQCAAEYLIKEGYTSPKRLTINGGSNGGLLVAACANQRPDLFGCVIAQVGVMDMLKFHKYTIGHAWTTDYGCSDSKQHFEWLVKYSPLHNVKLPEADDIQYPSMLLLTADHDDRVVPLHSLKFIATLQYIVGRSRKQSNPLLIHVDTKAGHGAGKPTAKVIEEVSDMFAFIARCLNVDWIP", "test": "PREP enzymatic activity assay", "conditions": "Z-Gly-Pro-AMC substrate", "procedure": "(§1) 7-Amino-4-Methylcoumarin (AMC) release was detected by measuring fluorescence at Ex/Em 380/460 nm using a Multifunction Microplate Reader (Synergy 4, Biotek). All measurements were carried out in triplicate."}, "[4]": {"molecular_target": "T4, recombinant human DPP9 (rhDPP9) (Homo sapiens, UniProt Q86TI2)", "T4 construct": "purchased R&S system (so in the source)", "T4 sequence (Q86TI2 whole entry)": "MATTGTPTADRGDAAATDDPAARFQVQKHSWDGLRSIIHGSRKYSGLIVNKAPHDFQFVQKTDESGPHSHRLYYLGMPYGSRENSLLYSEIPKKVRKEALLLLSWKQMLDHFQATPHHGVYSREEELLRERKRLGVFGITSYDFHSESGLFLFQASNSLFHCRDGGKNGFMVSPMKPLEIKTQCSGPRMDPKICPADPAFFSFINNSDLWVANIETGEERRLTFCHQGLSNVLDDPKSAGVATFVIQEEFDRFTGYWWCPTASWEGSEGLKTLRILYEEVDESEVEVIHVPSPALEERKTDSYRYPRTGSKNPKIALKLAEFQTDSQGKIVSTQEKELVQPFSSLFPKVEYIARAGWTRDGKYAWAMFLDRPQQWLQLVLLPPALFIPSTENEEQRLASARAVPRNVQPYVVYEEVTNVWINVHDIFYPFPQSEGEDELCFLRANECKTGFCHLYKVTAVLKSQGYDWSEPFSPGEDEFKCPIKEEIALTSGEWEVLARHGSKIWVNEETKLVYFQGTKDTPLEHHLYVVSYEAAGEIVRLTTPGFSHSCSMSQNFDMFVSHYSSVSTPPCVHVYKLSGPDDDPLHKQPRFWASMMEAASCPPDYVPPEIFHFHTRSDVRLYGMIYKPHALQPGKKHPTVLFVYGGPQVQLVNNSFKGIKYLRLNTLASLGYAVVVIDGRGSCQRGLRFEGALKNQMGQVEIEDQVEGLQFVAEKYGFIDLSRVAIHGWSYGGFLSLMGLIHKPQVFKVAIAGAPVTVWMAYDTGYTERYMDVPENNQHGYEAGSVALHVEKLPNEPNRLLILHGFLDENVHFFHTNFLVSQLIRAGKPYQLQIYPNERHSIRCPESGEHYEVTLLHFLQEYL", "test": "DPP9 enzymatic activity assay", "conditions": "H-Gly-Pro-AMC substrate", "procedure": "as §1"}, "[5]": {"molecular_target": "T5, circulating FAPα from human plasma (Homo sapiens, UniProt Q12884)", "T5 construct": "from tissue; host or cells: human plasma (EDTA-K2)", "T5 sequence (Q12884 24-760 limits assumed)": "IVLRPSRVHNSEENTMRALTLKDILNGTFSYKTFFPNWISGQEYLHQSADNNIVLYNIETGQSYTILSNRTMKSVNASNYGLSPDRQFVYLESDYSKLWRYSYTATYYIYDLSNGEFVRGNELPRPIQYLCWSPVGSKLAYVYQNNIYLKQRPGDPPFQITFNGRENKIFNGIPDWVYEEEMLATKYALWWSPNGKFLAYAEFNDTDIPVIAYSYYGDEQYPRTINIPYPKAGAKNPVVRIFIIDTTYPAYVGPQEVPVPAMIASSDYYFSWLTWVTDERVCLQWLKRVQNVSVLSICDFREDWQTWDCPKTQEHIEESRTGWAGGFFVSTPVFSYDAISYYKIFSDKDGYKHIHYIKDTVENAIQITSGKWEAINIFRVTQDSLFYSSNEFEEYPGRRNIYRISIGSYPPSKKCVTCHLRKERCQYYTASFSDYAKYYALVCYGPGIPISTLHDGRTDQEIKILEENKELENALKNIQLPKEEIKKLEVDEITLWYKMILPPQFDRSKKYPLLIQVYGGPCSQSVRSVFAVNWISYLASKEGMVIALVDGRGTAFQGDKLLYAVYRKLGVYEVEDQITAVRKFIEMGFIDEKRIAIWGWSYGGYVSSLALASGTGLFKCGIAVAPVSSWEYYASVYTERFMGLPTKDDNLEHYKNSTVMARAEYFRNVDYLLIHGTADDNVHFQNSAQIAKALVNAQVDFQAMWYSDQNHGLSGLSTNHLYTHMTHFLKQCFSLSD", "test": "Ex vivo inhibition of circulating FAPα activity from human plasma", "conditions": "human plasma; PRXS-AMC substrate; read-out: FAPα activity in human plasma (PRXS-AMC) IC50", "procedure": "Human blood was obtained from healthy young volunteers. Blood samples were collected in tubes coated with EDTA-K2 by venipuncture method, mixed gently, then kept on ice and centrifuged at 2,500×g for 15 minutes at 4° C. After plasma separation, samples were stored at −80° C. in aliquots of 300 μL. […] Exemplary compounds were allowed to interact with the enzyme for 15 minutes at 37° C. After pre-incubation, 50 μl of 200 μM PRXS-AMC substrate were added to the all mixtures. All reactions were carried out for 1 h at 37° C. protected from light. AMC release was detected measuring fluorescence at an excitation/emission wavelength of 380/460 nm using a Multifunction Microplate Reader. All measurements were carried out as single point."}, "[6]": {"conditions": "1 μM test compound, Z-Gly-Pro-AMC substrate"}},
  "note": "Read-outs that look alike come from different tables or passages of the source.",
  "data": [
    {"smiles": "N#C[C@@H]1CC(F)(F)CN1C(=O)CNC(=O)c1ccncc1-c1cc(Cl)ccc1F", "note": "[Compound 54, (S)-3-(5-chloro-2-fluorophenyl)-N-(2-(2-cyano-4,4-difluoropyrrolidin-1-yl)-2-oxoethyl)isonicotinamide]", "values": [
      {"measurement": "inhibition at 1 µM", "setting": "[1]; [6]", "result": "> 50", "unit": "%"},
      {"measurement": "IC50", "setting": "[1]; Table 2, Z-Gly-Pro-AMC", "result": "< 1000", "unit": "nM"},
      {"measurement": "IC50", "setting": "[1]; Table 3", "result": "< 1000", "unit": "nM"},
      {"measurement": "IC50", "setting": "[2]", "result": "> 10000", "unit": "nM"},
      {"measurement": "IC50", "setting": "[3]", "result": "> 10000", "unit": "nM"},
      {"measurement": "IC50", "setting": "[4]", "result": "> 10000", "unit": "nM"},
      {"measurement": "IC50", "setting": "[5]", "result": "< 1000", "unit": "nM"}
    ]},
    {"smiles": "Cn1ncc2c(-c3cnccc3C(=O)NCC(=O)N3CC(F)(F)C[C@H]3C#N)cccc21", "note": "[Compound 87, (S)—N-(2-(2-cyano-4,4-difluoropyrrolidin-1-yl)-2-oxoethyl)-3-(1-methyl-1H-indazol-4-yl)isonicotinamide]", "values": [
      {"measurement": "inhibition at 1 µM", "setting": "[1]; [6]", "result": "> 50", "unit": "%"},
      {"measurement": "IC50", "setting": "[1]; Table 2, Z-Gly-Pro-AMC", "result": "< 1000", "unit": "nM"},
      {"measurement": "IC50", "setting": "[1]; Table 3", "result": "< 1000", "unit": "nM"},
      {"measurement": "IC50", "setting": "[2]", "result": "> 10000", "unit": "nM"},
      {"measurement": "IC50", "setting": "[3]", "result": "> 10000", "unit": "nM"},
      {"measurement": "IC50", "setting": "[4]", "result": "> 10000", "unit": "nM"},
      {"measurement": "IC50", "setting": "[5]", "result": "< 1000", "unit": "nM"}
    ]},
    {"smiles": "N#C[C@@H]1CC(F)(F)CN1C(=O)CNC(=O)c1ccncc1N1CCOCC1", "note": "[Compound 88, N-[2-[(2S)-2-cyano-4,4-difluoro-pyrrolidin-1-yl]-2-oxo-ethyl]-3-morpholino-pyridine-4-carboxamide]", "values": [
      {"measurement": "inhibition at 1 µM", "setting": "[1]; [6]", "result": "> 50", "unit": "%"},
      {"measurement": "IC50", "setting": "[1]; Table 2, Z-Gly-Pro-AMC", "result": "< 1000", "unit": "nM"},
      {"measurement": "IC50", "setting": "[1]; Table 3", "result": "< 1000", "unit": "nM"},
      {"measurement": "IC50", "setting": "[2]", "result": "1000 to 10000", "unit": "nM"},
      {"measurement": "IC50", "setting": "[3]", "result": "> 10000", "unit": "nM"},
      {"measurement": "IC50", "setting": "[4]", "result": "1000 to 10000", "unit": "nM"},
      {"measurement": "IC50", "setting": "[5]", "result": "< 1000", "unit": "nM"}
    ]},
    {"smiles": "N#C[C@@H]1CC(F)(F)CN1C(=O)CNC(=O)c1ccncc1C1=CCNCC1", "note": "[Compound 105, (S)—N-(2-(2-cyano-4,4-difluoropyrrolidin-1-yl)-2-oxoethyl)-1′,2′,3′,6′-tetrahydro-[3,4′-bipyridine]-4-carboxamide 2,2,2-trifluoroacetate]", "values": [
      {"measurement": "IC50", "setting": "[1]; Table 2, Z-Gly-Pro-AMC", "result": "< 1000", "unit": "nM"},
      {"measurement": "IC50", "setting": "[1]; Table 3", "result": "< 1000", "unit": "nM"},
      {"measurement": "inhibition at 1 µM", "setting": "[1]", "result": "> 50", "unit": "%"},
      {"measurement": "IC50", "setting": "[2]", "result": "> 10000", "unit": "nM"},
      {"measurement": "IC50", "setting": "[3]", "result": "> 10000", "unit": "nM"},
      {"measurement": "IC50", "setting": "[4]", "result": "> 10000", "unit": "nM"},
      {"measurement": "IC50", "setting": "[5]", "result": "< 1000", "unit": "nM"}
    ]},
    {"smiles": "N#C[C@@H]1CC(F)(F)CN1C(=O)CNC(=O)c1c[nH]c(=O)cc1-c1ccc(F)cc1", "note": "[Compound 109, (S)—N-(2-(2-cyano-4,4-difluoropyrrolidin-1-yl)-2-oxoethyl)-4-(4-fluorophenyl)-6-oxo-1,6-dihydropyridine-3-carboxamide]", "values": [
      {"measurement": "IC50", "setting": "[1]; Table 2, Z-Gly-Pro-AMC", "result": "< 1000", "unit": "nM"},
      {"measurement": "IC50", "setting": "[1]; Table 3", "result": "< 1000", "unit": "nM"},
      {"measurement": "inhibition at 1 µM", "setting": "[1]", "result": "> 50", "unit": "%"},
      {"measurement": "IC50", "setting": "[2]", "result": "1000 to 10000", "unit": "nM"},
      {"measurement": "IC50", "setting": "[3]", "result": "> 10000", "unit": "nM"},
      {"measurement": "IC50", "setting": "[4]", "result": "1000 to 10000", "unit": "nM"},
      {"measurement": "IC50", "setting": "[5]", "result": "< 1000", "unit": "nM"}
    ]},
    {"smiles": "N#C[C@@H]1CC(F)(F)CN1C(=O)CNC(=O)c1c[nH]c(=O)c2ccccc12", "note": "[Example 1, (S)—N-(2-(2-cyano-4,4-difluoropyrrolidin-1-yl)-2-oxoethyl)-1-oxo-1,2-dihydroisoquinoline-4-carboxamide]", "values": [
      {"measurement": "IC50", "setting": "[1]; Table 2, Z-Gly-Pro-AMC", "result": "< 1000", "unit": "nM"},
      {"measurement": "IC50", "setting": "[1]; Table 3", "result": "< 1000", "unit": "nM"},
      {"measurement": "IC50", "setting": "[2]", "result": "1000 to 10000", "unit": "nM"},
      {"measurement": "IC50", "setting": "[3]", "result": "1000 to 10000", "unit": "nM"},
      {"measurement": "IC50", "setting": "[4]", "result": "1000 to 10000", "unit": "nM"},
      {"measurement": "IC50", "setting": "[5]", "result": "< 1000", "unit": "nM"}
    ]}
  ]
}
